Data from patent publication EP4527946A1, “METHOD FOR PREDICTING THE RESPONSE TO A DUAL S[…] KINASE TTK INHIBITOR THERAPY” (Pangaea Oncology, S.A, priority 2023, dated 2025).

What was measured:
RT-112 = experiment: Cell viability (MTT) assay; type: cell-based; settings: Homo sapiens, RT-112, origin UB, Td 24 h, drug for 2-3 doubling times
Procedure: (§1) Each concentration of drug was tested in sextuplicates. […] Data were derived from at least two independent experiments. […]

SNU-C1 = experiment: Cell viability (MTT) assay; type: cell-based; settings: Homo sapiens, SNU-C1, origin Colon, Td 31 h, drug for 2-3 doubling times
Procedure: as §1

MDA-MB-231 = experiment: Cell viability (MTT) assay; type: cell-based; settings: Homo sapiens, MDA-MB-231, origin Breast, Td 25 h, drug for 2-3 doubling times
Procedure: as §1

NCI-H3122 = experiment: Cell viability (MTT) assay; type: cell-based; settings: Homo sapiens, NCI-H3122, origin LA, Td 49 h, drug for 2-3 doubling times
Procedure: as §1

FADU = experiment: Cell viability (MTT) assay; type: cell-based; settings: Homo sapiens, origin HNSCC, Td 30 h, drug for 2-3 doubling times
Procedure: as §1

NCI-H1975 = experiment: Cell viability (MTT) assay; type: cell-based; settings: Homo sapiens, NCI-H1975, origin LA, Td 39 h, drug for 2-3 doubling times
Procedure: as §1

LC-2/ad = experiment: Cell viability (MTT) assay; type: cell-based; settings: Homo sapiens, origin LA, Td 58 h, drug for 2-3 doubling times
Procedure: as §1

MIA-PaCa-2 = experiment: Cell viability (MTT) assay; type: cell-based; settings: Homo sapiens, MIA-PaCa-2, origin Pancreas, Td 26 h, drug for 2-3 doubling times
Procedure: as §1

DU-145 = experiment: Cell viability (MTT) assay; type: cell-based; settings: Homo sapiens, DU-145, origin Pr, Td 30 h, drug for 2-3 doubling times
Procedure: as §1

NCI-H2228 = experiment: Cell viability (MTT) assay; type: cell-based; settings: Homo sapiens, NCI-H2228, origin LA, Td 96 h, drug for 2-3 doubling times
Procedure: as §1

T98G = experiment: Cell viability (MTT) assay; type: cell-based; settings: Homo sapiens, origin GB, Td 22 h, drug for 2-3 doubling times
Procedure: as §1

WM793 = experiment: Cell viability (MTT) assay; type: cell-based; settings: Homo sapiens, WM793, origin Melan., Td 48 h, drug for 2-3 doubling times
Procedure: as §1

MDA-MB-468 = experiment: Cell viability (MTT) assay; type: cell-based; settings: Homo sapiens, MDA-MB-468, origin Breast, Td 35 h, drug for 2-3 doubling times
Procedure: as §1

NCI-H1819 = experiment: Cell viability (MTT) assay; type: cell-based; settings: NCI-H1819, origin LA, Td 51 h, drug for 2-3 doubling times
Procedure: as §1

HCC366 = experiment: Cell viability (MTT) assay; type: cell-based; settings: HCC366, origin LA, Td 65 h, drug for 2-3 doubling times
Procedure: as §1

SK-MES-1 = experiment: Cell viability (MTT) assay; type: cell-based; settings: Homo sapiens, SK-MES-1, origin LS, Td 50 h, drug for 2-3 doubling times
Procedure: as §1

EBC-1 = experiment: Cell viability (MTT) assay; type: cell-based; settings: Homo sapiens, EBC-1, origin LS, Td 42 h, drug for 2-3 doubling times
Procedure: as §1

NCI-H23 = experiment: Cell viability (MTT) assay; type: cell-based; settings: Homo sapiens, NCI-H23, origin LA, Td 38 h, drug for 2-3 doubling times
Procedure: as §1

HCC78 = experiment: Cell viability (MTT) assay; type: cell-based; settings: Homo sapiens, HCC78, origin LA, Td 38 h, drug for 2-3 doubling times
Procedure: as §1

A549 = experiment: Cell viability (MTT) assay; type: cell-based; settings: Homo sapiens, A549, origin LA, Td 22 h, drug for 2-3 doubling times
Procedure: as §1

SK-OV-3 = experiment: Cell viability (MTT) assay; type: cell-based; settings: Homo sapiens, SK-OV-3, origin Ovarian, Td 48 h, drug for 2-3 doubling times
Procedure: as §1

PC9-ER and PC-GR4 clones = experiment: Flow cytometry (cell cycle, annexin V/PI) in clones; type: cell-based; settings: 50 nM
Procedure: (§2) For cell cycle analyses, cells were plated in T-25 flasks, allowed to attach, treated with drugs in RPMI 1640 + 10% FBS, trypsinised and centrifuged. Cell pellets were resuspended in PBS, fixed in 70% ethanol and incubated o/n at -20 °C. Fixed cells were subsequently re-centrifuged at 400 xg for 5 min at 4 °C; resuspended in 250 µL of PBS with 50 µg/mL RNAse A (Sigma Aldrich, Saint Louis, MO), incubated for 1 h at 37 °C and stained with propidium iodide (PI) (Roche Diagnostics, Basel, Switzerland) for 30 min at room temperature.
(§3) For cell death analyses, the Annexin-V-FLUOS (An) staining kit (Roche Diagnostics) was employed, according to the manufacturer's instructions. Stained cells were sorted with a FACSCanto II cytometer (BD Biosciences, Franklin Lakes, NJ) using the FACSDiva software version 6.1.2. The combination of Annexin V and PI was used to differentiate four cell populations; viable cells (An -/PI-), early apoptotic (An+/PI-), necrotic (An-/PI+) and later apoptotic/necrotic (An+/PI+).

NCl-H1819 cells = experiment: Flow cytometry (cell cycle, Annexin V); type: cell-based; settings: TTKi sensitive NCl-H1819 cells
Procedure: as §2, §3

PC9-ER = experiment: cells; settings: Homo sapiens, PC-9/ER, read-out: IC50s
Procedure: as §1

[1] = test system: EGFR TKI-resistant clones derived from the PC9 cell line and from 11-18 cells; experiment: Dose-response (cell viability) in EGFR TKI-resistant clones; type: cell-based; settings: Homo sapiens
Source text: All parental cell lines used in the study were purchased from the ATCC or other cell banks, with the exception of PC9 and 11-18. Parental PC9 cells were provided by F. Hoffman-La Roche Ltd (Basel, Switzerland) with the authorization of Dr. Mayumi Ono (Kyushu University, Fukuoka, Japan); while parental 11-18 cells were kindly provided by Dr. Mayumi Ono. Resistant cells were derived by exposing parental cells to EGFR TKIs, as described in [Bertran-Alamillo et al., (2019) AURKB as a target in non-small cell lung cancer with acquired resistance to anti-EGFR therapy. Nat Commun 10, 1812, and Jacobsen K, et al., (2017) Convergent Akt activation drives acquired EGFR inhibitor resistance in lung cancer. […] All tumor cells were grown in a humidified atmosphere with 5% CO2 at 37°C in RPMI 1640 + 10% fetal bovine serum (FBS), 50 µg/mL penicillin-streptomycin and 2 mM L-Glutamine. Cell lines were routinely tested for mycoplasma contamination and authenticated by analyzing >20 polymorphisms using a 30-gene panel NGS.
as §1

COc1ccc(Oc2cc(NCCC(F)(F)F)c3ncc(-c4ccc(C(=O)NC5CC5)c(C)c4)n3n2)c(F)c1F [BAY1217389]
IC50 (RT-112): 3.8 ± 0.3 nM
IC50 (SNU-C1): > 1000 nM
IC50 (MDA-MB-231): > 1000 nM
IC50 (NCI-H3122): 7.2 ± 0.5 nM
IC50 (FADU): > 1000 nM
IC50 (NCI-H1975): > 1000 nM
IC50 (LC-2/ad): 3.6 ± 0.3 nM
IC50 (MIA-PaCa-2): > 1000 nM
IC50 (DU-145): > 1000 nM
IC50 (NCI-H2228): > 1000 nM
IC50 (T98G): > 1000 nM
IC50 (WM793): > 1000 nM
IC50 (MDA-MB-468): 4.1 ± 0.3 nM
IC50 (NCI-H1819): 2.6 ± 0.3 nM
IC50 (HCC366): > 1000 nM
IC50 (SK-MES-1): > 1000 nM
IC50 (EBC-1): 4.6 ± 0.6 nM
IC50 (NCI-H23): > 1000 nM
IC50 (HCC78): > 1000 nM
IC50 (A549): > 1000 nM
IC50 (SK-OV-3): > 1000 nM
effect after G2/M arrest (flow cytometry) (PC9-ER and PC-GR4 clones; resistant clones): extensive polyploidy
effect after G2/M arrest (flow cytometry) (PC9-ER and PC-GR4 clones; sensitive clones): cell death
cell death (Annexin V) (NCl-H1819 cells): extensive induction of cell death
cell cycle effect (flow cytometry) (NCl-H1819 cells; 50 nM): G2/M arrest
IC50 (PC9-ER): > 10000 nM
IC50 ([1]; PC-9, six clones sensitive to the TTKi): < 1 nM
IC50 ([1]; PC-9, twelve TTKi resistant clones): > 200 nM
